One experiment deals with T1, 5-HT1A (Rattus norvegicus, UniProt P19327).
T1 construct: Hippocampal tissue from the brains of male Charles River CD rats; from tissue; host or cells: rat hippocampus (male Charles River CD rats), crude membrane pellet
T1 sequence (P19327 1-422): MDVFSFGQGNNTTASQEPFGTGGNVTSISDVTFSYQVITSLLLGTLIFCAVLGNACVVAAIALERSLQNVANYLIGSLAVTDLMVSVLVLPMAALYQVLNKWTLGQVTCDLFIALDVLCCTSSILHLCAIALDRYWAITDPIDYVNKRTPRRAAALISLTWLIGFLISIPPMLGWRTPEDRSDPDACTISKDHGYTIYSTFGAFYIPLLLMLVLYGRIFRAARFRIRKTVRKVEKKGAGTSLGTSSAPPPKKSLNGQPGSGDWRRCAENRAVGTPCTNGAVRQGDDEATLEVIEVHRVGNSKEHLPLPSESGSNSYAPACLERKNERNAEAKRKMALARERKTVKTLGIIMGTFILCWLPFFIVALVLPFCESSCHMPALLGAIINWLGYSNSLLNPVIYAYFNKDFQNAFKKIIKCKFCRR
Put plainly: inhibition of tritiated ligand ([3H]8-OH-DPAT) binding to 5-HT1A receptors, rat hippocampal tissue. Details: species or system male Charles River CD rats. As to conditions: for inhibition at 1 µM: at 10^-6 M, read-out: % displacement of specific binding, 5-HT1A; for Ki: 25° C., 30 minutes, pH 7.7. The procedure: Hippocampal tissue from the brains of male Charles River CD rats weighing between 150-250 g were homogenised in ice-cold 50 mM Tris-HCl buffer (pH 7.7) when measured at 25° C., 1:40 w/v) and centrifuged at 30,000 g at 4° C. for 10 minutes. The pellet was rehomogenised in the same buffer, incubated at 37° C. for 10 minutes and centrifuged at 30,000 g at 4° C. for 10 minutes. The final pellet was resuspended in 50 mM Tris-HCl buffer (pH 7.7) containing 4 mM CaCl2, 0.1% L-ascorbic acid and 10 μM pargyline hydrochloride (equivalent to 6.25 mg wet weight of tissue/ml) and used immediately in the binding assay. Aliquots (400 μl; equivalent to 2.5 mg wet weight of tissue/tube) of this suspension were added to tubes containing the ligand (50 μl; 2 nM) and distilled water (50 μl; total binding) or 5-HT (50 μl; 10 μM; non-specific binding) or test compound (50 μl; at a single concentration of 10^-6 M or at 10 concentrations ranging from 10^-11 -10^-3 M). The ligand was [^3 H]8-hydroxy-2-(dipropylamino)tetralin ([^3 H]8-OH-DPAT) and the mixture was incubated at 25° C. for 30 minutes before the incubation was terminated by rapid filtration.
The filters were washed with ice-cold Tris-HCl buffer and dried. The filters were punched out into vials, scintillation fluid added and radioactivity determined by liquid scintillation counting. The percentage displacement of specific binding of the tritiated ligand was calculated for the single concentration (10^-6 M) of test compound. Displacement curves were then produced for those compounds which displaced ≥50% of specific binding of the tritiated ligand at 10^-6 M using a range of concentrations of the compound. The concentration which gave 50% inhibition of specific binding (IC50) was obtained from the curve. The inhibition coefficient Ki was then calculated using the formula [formula] in which [ligand] is the concentration of the tritiated ligand used and KD Is the equilibrium dissociation constant for the ligand.

Experiment [1] has as its target T2, D2-like dopamine receptors (Rattus norvegicus, UniProt P61169).
T2 construct: Striatal tissue from the brains of male Charles River CD rats; from tissue; host or cells: rat striatum (male Charles River CD rats), crude membrane pellet
Put plainly: inhibition of tritiated (S)-sulpiride binding to D2-like dopamine receptors, rat striatal tissue. Details: species or system male Charles River CD rats. As to conditions: for inhibition at 1 µM: at 10^-6 M, read-out: % displacement of specific binding, D2-like; for Ki: 4° C., 40 minutes, pH 7.7. The procedure:
Striatal tissue from the brains of male Charles River CD rats weighing between 140-250 g were homogenised in ice-cold 50 mM Tris-HCl buffer (pH 7.7 when measured at 25° C.) and centrifuged at 40,000 g for 10 minutes. The pellet was resuspended in Tris salts buffer (50 mM Tris-HCl buffer containing 120 mM NaCl, 5 mM KCl, 2 mM CaCl2 and 1 mM MgCl2 with the addition of 6 mM ascorbic acid; pH 7.7 when measured at 25° C.), and again centrifuged at 40,000 g for 10 minutes. The final pellet was stored at -80° C. Before each test the pellet was resuspended in Tris salts buffer (equivalent to 2 mg wet weight of tissue/ml). Aliquots (720 μl; equivalent to 1.44 mg wet weight of tissue/tube) of this suspension were then added to tubes containing the ligand (40 μl; 1 nM) and Tris salts buffer (40 μl; total binding) or spiroperidol (40 μl; 10 nM; non-specific binding) or test compound (40 μl; at a single concentration of 10^-6 M or at 6 concentrations ranging from 10^-11 -10^-4 M). The ligand was tritiated (S)-sulpiride and the mixture was incubated at 4° C. for 40 minutes before the incubation was terminated by rapid filtration.
The filters were washed with ice-cold Tris-HCl buffer and dried. The filters were punched out in to vials, scintillation fluid added and were left for about 20 hours before being counted by scintillation spectrophotometry. The percentage displacement of specific binding of the tritiated ligand was calculated for the single concentration (10^-6 M) of test compound. Displacement curves were then produced over a range of concentrations for those compounds which displaced ≥50% of specific binding of the tritiated ligand at 10^-6 M. The concentration which gave a 50% inhibition of specific binding (IC50) was obtained from the curve. The inhibition coefficient Ki was then calculated using the formula [formula] in which [ligand] is the concentration of the tritiated ligand used and KD is the equilibrium dissociation constant for the ligand.

T2 sequence (P61169 whole entry): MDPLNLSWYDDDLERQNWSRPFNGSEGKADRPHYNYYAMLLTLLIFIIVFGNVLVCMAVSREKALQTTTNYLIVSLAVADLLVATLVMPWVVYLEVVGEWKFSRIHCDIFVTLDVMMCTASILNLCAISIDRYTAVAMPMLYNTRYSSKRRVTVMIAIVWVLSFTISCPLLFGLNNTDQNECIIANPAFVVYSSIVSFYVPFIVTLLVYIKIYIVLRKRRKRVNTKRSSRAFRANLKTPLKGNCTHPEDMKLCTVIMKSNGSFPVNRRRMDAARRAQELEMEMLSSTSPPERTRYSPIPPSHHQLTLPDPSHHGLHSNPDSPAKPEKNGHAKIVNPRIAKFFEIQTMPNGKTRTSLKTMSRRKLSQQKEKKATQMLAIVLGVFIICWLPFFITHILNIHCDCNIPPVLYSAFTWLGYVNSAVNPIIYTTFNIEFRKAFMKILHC

As for `O=S(=O)(NCC1CCN(C[C@H]2COc3cc4c(cc3O2)OCO4)CC1)c1cccc(Cl)c1Cl` [Example 49, (S)-(-)-2,3-Dichloro-N-{[1-(^6,^7-methylenedioxy-1,4-benzodioxan-2-ylmethyl)-4-piperidyl]methyl}benzenesulphonamide], the inhibition at 1 µM at 5-HT1A is 77%; in experiment [1], 89%.
On to `Cc1c(C)c(C)c(S(=O)(=O)NCC2CCN(C[C@H]3COc4ccc(Cl)cc4O3)CC2)c(C)c1C` [Example 22, (S)-N-{[1-(7-Chloro-1,4-benzodioxan-2-ylmethyl)-4-piperidyl]methyl}-2,3,4,5,6-pentamethylbenzenesulphonamide], for which the inhibition at 1 µM on 5-HT1A is 59%. In experiment [1], the Ki turned out to be 317 nM.
The like results for `O=[N+]([O-])c1cccc(S(=O)(=O)NCC2CCN(C[C@H]3COc4ccc(Cl)cc4O3)CC2)c1` [Example 25, (S)-N-{[1-(7-Chloro-1,4-benzodioxan-2-ylmethyl)-4-piperidyl]methyl}-3-nitrobenzenesulphonamide] were, in that order, 91% and 119 nM.
For `O=S(=O)(NCC1CCN(C[C@H]2COc3ccc(Cl)cc3O2)CC1)c1ccc(OC(F)(F)F)cc1` [Example 29, (S)-N-{[1-(7-Chloro-1,4-benzodioxan-2-ylmethyl)-4-piperidyl]methyl}-4-trifluoromethoxybenzenesulphonamide], in that order: 67% and 357 nM.
`CC(=O)Nc1ccc(S(=O)(=O)NCC2CCN(C[C@H]3COc4ccc(Br)cc4O3)CC2)cc1` [Example 44, (S)-(-)-4-Acetamido-N-{[1-(7-bromo-1,4-benzodioxan-2-ylmethyl}-4-piperidyl]methyl)benzenesulphonamide]: the Ki on 5-HT1A turned out to be 14 nM; in experiment [1] it was 23 nM.
Regarding `O=[N+]([O-])c1ccccc1S(=O)(=O)NCC1CCN(C[C@H]2COc3ccc(Cl)cc3O2)CC1` [Example 37, (S)-N-{[1-(7-Chloro-1,4-benzodioxan-2-ylmethyl)-4-piperidyl]methyl}-2-nitro-benzenesulphonamide], the inhibition at 1 µM at 5-HT1A is 87%. The Ki in experiment [1] is 85 nM.
On to `COc1ccc(S(=O)(=O)NCC2CCN(C[C@H]3COc4ccc(Cl)cc4O3)CC2)cc1` [Example 9, (S)-(-)-N-{[1-(7-chloro-1,4-benzodioxan-2-ylmethyl)-4-piperidyl]-methyl}-4-methoxybenzenesulphonamide], for which the Ki at 5-HT1A was 42 nM; in experiment [1], 96.4 nM.
Regarding `O=S(=O)(NCC1CCN(C[C@H]2COc3ccc(Br)cc3O2)CC1)c1ccc(F)c(Cl)c1` [Example 48, (S)-(-)-3-Chloro-N-{[1-(7-bromo-1,4-benzodioxan-2-ylmethyl)-4-piperidyl]methyl}-4-fluorobenzenesulphonamide], the values for the inhibition at 1 µM (at 5-HT1A; in experiment [1]) were 88% and 103%, respectively.
Take `O=[N+]([O-])c1ccc(S(=O)(=O)NCC2CCN(C[C@H]3COc4ccc(Cl)cc4O3)CC2)c([N+](=O)[O-])c1` [Example 15, (S)-N-{[1-(7-Chloro-1,4-benzodioxan-2-ylmethyl)-4-piperidyl]methyl}-2,4-dinitrobenzenesulphonamide]: the inhibition at 1 µM at 5-HT1A was found to be 82%. In addition, in experiment [1], affinity was put at a Ki of 212 nM.
Consider `O=S(=O)(NCC1CCN(C[C@H]2COc3ccc(C(F)(F)F)cc3O2)CC1)c1cccc(Cl)c1Cl` [Example 14, (S)-(-)-2,3-dichloro-N-{[1-(7-trifluoromethyl-1,4-benzodioxan-2-ylmethyl)-4-piperidyl]methyl}benzenesulphonamide], for which the results for the Ki (at 5-HT1A; in experiment [1]) were 25 nM and 111 nM, respectively.
`O=S(=O)(NCC1CCN(C[C@H]2COc3ccc(Cl)cc3O2)CC1)c1ccc(F)c(F)c1F` [Example 38, (S)-N-{[1-(7-Chloro-1,4-benzodioxan-2-ylmethyl)-4-piperidyl]methyl}-2,3,4-trifluorobenzenesulphonamide]: the inhibition at 1 µM on 5-HT1A was determined as 95%. Also, affinity in experiment [1] was put at a Ki of 330 nM.
As for `O=S(=O)(NCC1CCN(C[C@H]2COc3ccc(Cl)cc3O2)CC1)c1c(F)cccc1F` [Example 10, (S)-(-)-N-{[1-(7-chloro-1,4-benzodioxan-2-ylmethyl)-4-piperidyl]methyl}-2,6-difluorobenzenesulphonamide], the inhibition constant Ki was 7.4 nM at 5-HT1A and 50.1 nM in experiment [1].
As to `O=S(=O)(NCC1CCN(C[C@H]2COc3ccc(Cl)cc3O2)CC1)c1ccccc1Cl` [Example 41, (S)-(-)-2-Chloro-N-{[1-(7-chloro-1,4-benzodioxan-2-ylmethyl)-4-piperidyl]methyl}benzenesutphonamide], the inhibition at 1 µM was found to be 93% at 5-HT1A and 106% in experiment [1].
As for `COc1ccc(OC)c(S(=O)(=O)NCC2CCN(C[C@H]3COc4ccc(Cl)cc4O3)CC2)c1` [Example 32, (S)-N-{[1-(7-Chloro-1,4-benzodioxan-2-ylmethyl)-4-piperidyl]methyl}-2,5-dimethoxybenzenesulphonamide], at 5-HT1A, the inhibition at 1 µM was 87%. The same compound registered a Ki in experiment [1] of 285 nM.
As to `O=S(=O)(NCC1CCN(C[C@H]2COc3ccc(Cl)cc3O2)CC1)c1ccc2ccccc2c1` [Example 30, (S)-N-{[1-(7-Chloro-1,4-benzodioxan-2-ylmethyl)-4-piperidyl]methyl}-2-naphthalenesulphonamide], at 5-HT1A, the inhibition at 1 µM was determined as 65%. Further, the Ki in experiment [1] stood at 241 nM.
The like results for `O=S(=O)(NCC1CCN(C[C@H]2COc3ccc(Cl)cc3O2)CC1)c1cccc(C(F)(F)F)c1` [Example 28, (S)-N-{[1-(7-Chloro-1,4-benzodioxan-2-ylmethyl)-4-piperidyl]methyl}-3-trifluoromethylbenzenesulphonamide] were, in that order, 68% and 352 nM.
The like results for `COc1ccc(Cl)cc1S(=O)(=O)NCC1CCN(C[C@H]2COc3ccc(Cl)cc3O2)CC1` [Example 27, (S)-5-Chloro-N-{[1-(7-chloro-1,4-benzodioxan-2-ylmethyl)-4-piperidyl]methyl}-2-methoxybenzenesulphonamide] were, in that order, 68% and 351 nM.
For `O=S(=O)(NCC1CCN(C[C@H]2COc3ccc(Cl)cc3O2)CC1)c1ccc(F)cc1F` [Example 7, (S)-(-)-N-{[1-(7-chloro-1,4-benzodioxan-2-ylmethyl)-4-piperidyl]methyl}-2,4-difluorobenzenesulphonamide], the results for the Ki (at 5-HT1A; in experiment [1]) were 35 nM and 37.8 nM, respectively.

The values are drawn from patent publication US6136825A, “Sulfonamide compounds having 5-HT receptor activity” (Knoll Aktiengesellschaft, priority 1996, dated 2000).
